In US9290691B2, “Organic el material-containing solution, method for forming organic el thin film, organic el device comprising organic el thin film, and method for manufacturing organic el display panel” (IDEMITSU KOSAN CO., LTD., priority 2007, dated 2016):

Assay: Solubility Evaluation 2: naphthacene compounds in various solvents, visual check
Type: physicochemical
Parameters: key: A: it was confirmed that the compounds were dissolved in the dropped solvents; C: the compounds were not completely dissolved and undissolved residues remained
Settings: 30 mg compound, 1 g solvent
Method: (§1) 30 mg of each of anthracene compounds 1 to 14 represented by the following formulae was put into a sample bottle, and 1 g of each of various solvents was dropped into the bottle with agitation. By visual check, a case where it was confirmed that the compounds were dissolved in the dropped solvents is marked as A and a case where the compounds were not completely dissolved and undissolved residues remained is marked as C.
Next, naphthacene compounds 15 and 16 were used in place of the anthracene compounds, and the solubility was evaluated in the same manner as the above. Same as in Solubility Evaluation 1, by visual check, a case where it was confirmed that the compounds were dissolved in the dropped solvents is marked as A and a case where the compounds were not completely dissolved and undissolved residues remained is marked as C. Moreover, a case where precipitation was observed after several hours of dissolution is marked as B. Result of solubility evaluation will be shown in Table 3 below.

SMILES	Solubility in Cycloheptanone	Solubility in Cyclohexanone	Solubility in N-methylpyrolidone	Solubility in Toluene	Solubility in Xylene
c1ccc(-c2cc(-c3ccccc3)c(-c3c4ccccc4c(-c4ccccc4)c4cc5ccccc5cc34)c(-c3ccccc3)c2)cc1 [Compound 16]	A	A	A	C	C

Assay: Solubility Evaluation 1: anthracene compounds in various solvents, visual check
Type: physicochemical
Parameters: key to Solubility in Cyclohexanone / Solubility in Toluene / Solubility in Xylene / Solubility in Tetralin / Solubility in Dodecylbenzene / Solubility in Anisole / Solubility in Dioxane / Solubility in Butyl Acetate / Solubility in Methylethylketone / Solubility in N-methylpyrolidone: A: it was confirmed that the compounds were dissolved in the dropped solvents; C: the compounds were not completely dissolved and undissolved residues remained
Settings: 30 mg compound, 1 g solvent, visual check
Method: as §1

SMILES	Solubility in Anisole	Solubility in Butyl Acetate	Solubility in Cyclohexanone	Solubility in Dioxane	Solubility in Dodecylbenzene	Solubility in Methylethylketone	Solubility in N-methylpyrolidone	Solubility in Tetralin	Solubility in Toluene	Solubility in Xylene
c1ccc2cc(-c3c4ccccc4c(-c4ccc(-c5cccc6ccccc56)cc4)c4ccccc34)ccc2c1 [Compound 1]	C	C	A	A	C	C	A	C	A	A
c1ccc(-c2cc(-c3ccc4ccccc4c3)cc(-c3c4ccccc4c(-c4ccc5ccccc5c4)c4ccccc34)c2)cc1 [Compound 2]	C	C	A	A	C	C	A	C	A	A
c1ccc(-c2ccc3cc(-c4cccc(-c5c6ccccc6c(-c6ccc(-c7cccc8ccccc78)cc6)c6ccccc56)c4)ccc3c2)cc1 [Compound 3]	C	C	A	A	C	C	A	C	A	A
c1cc(-c2ccc3ccccc3c2)cc(-c2c3ccccc3c(-c3ccc4cc(-c5ccc6ccccc6c5)ccc4c3)c3ccccc23)c1 [Compound 4]	C	C	A	C	C	C	A	C	C	C
c1ccc(-c2ccc3ccc(-c4c5ccccc5c(-c5cccc(-c6ccc7ccccc7c6)c5)c5ccccc45)cc3c2)cc1 [Compound 5]	C	C	A	C	C	C	A	C	C	C
c1cc(-c2ccc3ccccc3c2)cc(-c2c3ccccc3c(-c3cccc4ccccc34)c3ccccc23)c1 [Compound 6]	C	C	A	C	C	C	A	C	C	C
c1ccc2cc(-c3ccc(-c4c5ccccc5c(-c5ccc(-c6cccc7ccccc67)cc5)c5ccccc45)cc3)ccc2c1 [Compound 7]	C	C	A	A	C	C	A	C	A	A
c1ccc(-c2ccc3cc(-c4cccc(-c5c6ccccc6c(-c6ccc7ccccc7c6)c6ccccc56)c4)ccc3c2)cc1 [Compound 8]	C	C	A	C	C	C	A	C	C	C
c1ccc2cc(-c3ccc(-c4ccc(-c5c6ccccc6c(-c6ccc7ccccc7c6)c6ccccc56)cc4)c4ccccc34)ccc2c1 [Compound 9]	C	C	A	C	C	C	A	C	C	C
c1cc(-c2ccc3ccccc3c2)cc(-c2c3ccccc3c(-c3ccc4ccccc4c3)c3ccccc23)c1 [Compound 10]	C	C	A	C	C	C	A	C	A	A
c1ccc2cc(-c3c4ccccc4c(-c4ccc5ccccc5c4)c4ccccc34)ccc2c1 [Compound 11]	C	C	C	C	C	C	C	C	C	C
c1ccc(-c2c3ccccc3c(-c3cccc(-c4cccc(-c5c6ccccc6c(-c6ccccc6)c6ccccc56)c4)c3)c3ccccc23)cc1 [Compound 12]	C	C	C	C	C	C	C	C	C	C
c1ccc(-c2ccc(-c3c4ccccc4c(-c4ccc(-c5ccccc5)cc4)c4ccccc34)cc2)cc1 [Compound 13]	C	C	C	C	C	C	C	C	C	C
c1ccc(-c2ccc(-c3ccccc3-c3c4ccccc4c(-c4c5ccccc5c(-c5ccccc5-c5ccc(-c6ccccc6)cc5)c5ccccc45)c4ccccc34)cc2)cc1 [Compound 14]	C	C	A	A	C	C	A	C	A	C

Same assay, conditions: cyclohexanone

SMILES	dissolution in cyclohexanone (in words)
c1cc(-c2ccc3ccccc3c2)cc(-c2c3ccccc3c(-c3ccc4cc(-c5ccc6ccccc6c5)ccc4c3)c3ccccc23)c1 [Compound 4]	dissolved

Same assay, conditions: toluene

SMILES	dissolution in toluene (in words)
c1cc(-c2ccc3ccccc3c2)cc(-c2c3ccccc3c(-c3ccc4cc(-c5ccc6ccccc6c5)ccc4c3)c3ccccc23)c1 [Compound 4]	not dissolved
